Test results as given in US12559472B2, “Salts of a compound and the crystalline forms thereof” (HUTCHISON MEDIPHARMA LIMITED, priority 2019, dated 2026).
≈ marks a conversion by molar mass, not a printed value.

Experiments:
[1] = Solubility in buffers with different pHs and in water (Example 19); format: physicochemical; conditions: for solubility at 30 min: 37 °C, thermodynamic from solid
Procedure: The solubility results were all calculated based on the free form. The buffers with different pHs were prepared according to the United States Pharmacopeia (USP40-NF35).

[2] = test system: FGFR; conditions: cited from earlier work

CNC(=O)c1cc(CCc2cnc(Nc3ccc(N4C[C@@H](C)N[C@@H](C)C4)cc3)nc2)c(Cl)c(OC)c1 [Compound 78, 4-chloro-3-(2-(2-((4-((3S,5R)-3,5-dimethylpiperazin-1-yl)phenyl)amino)pyrimidin-5-yl)ethyl)-5-methoxy-N-methylbenzamide]
Solubility (in words) ([1]; all test media): greatly different solubility in different media | solubility at 30 min ([1]; pH 1.2 buffer (USP), pH 1.2, simulated gastric fluid, pH 1.2 buffer, 30 minutes, calculated based on the free form): 721 µg/mL (≈ 1420 µM) | solubility at 30 min ([1]; pH 2.1 buffer (USP), pH 2.1, aqueous buffer, pH 2.1 buffer, 30 minutes, calculated based on the free form): 174 µg/mL (≈ 342 µM) | solubility at 30 min ([1]; pH 4.5 buffer (USP), pH 4.5, aqueous buffer, pH 4.5 buffer, 30 minutes, calculated based on the free form): ≤ 12600 µg/mL | Solubility ([1]; pH 4.5 buffer, 37° C., 30 minutes, calculated based on the free form): 12588.8 µg/mL (≈ 24700 µM) | solubility at 30 min ([1]; pH 6.8 buffer (USP), pH 6.8, aqueous buffer, pH 6.8 buffer, 30 minutes, calculated based on the free form): 67.5 µg/mL (≈ 133 µM) | solubility at 30 min ([1]; purified water, water, 30 minutes, calculated based on the free form): 2.3 µg/mL (≈ 4.52 µM) | Inhibition of FGFR activity [2]: can effectively inhibit FGFR activity
